Source: PubChem BioAssay AID252 (DTP/NCI, 2004)
Several values for one entry are separate records, joined by “and”; a condition that tells them apart may be missing. Equal entries are not always repeated. Inconclusive results and toxic doses are left out.

Tested on: BDF1 mice, intracerebral L1210 leukemia, survival T/C
Test: NCI In Vivo Anticancer Drug Screen. Data for tumor model L1210 Leukemia (intracerebral) in B6D2F1 (BDF1) mice
Details: endpoint: mean survival time, higher = longer survival
Procedure, shortened: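 Antitumour effect is judged in mice with transplanted tumour by comparing survival of treated (T) against vehicle-dosed (C) groups as T/C.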

[1] = dose: 300.0 mg/kg/injection, schedule: Q01DX001 (ip), vehicle: carboxymethylcellulose (CMC)
[2] = dose: 31.0 mg/kg/injection, schedule: Q01DX001 (ip), vehicle: other
[3] = dose: 62.0 mg/kg/injection, schedule: Q01DX001 (ip), vehicle: other
[4] = dose: 3.0 mg/kg/injection, schedule: Q01DX009 (ip), vehicle: water

O=NN(CCCl)C(=O)NC1CCCC1
T/C (dose: 18.0 mg/kg/injection, schedule: Q01DX001 (ip), vehicle: saline): 170 % of control | T/C (dose: 19.0 mg/kg/injection, schedule: Q01DX001 (ip), vehicle: saline): 163 % of control and 234 % of control | T/C (dose: 25.0 mg/kg/injection, schedule: Q01DX001 (ip), vehicle: saline): 157 % of control | T/C (dose: 28.0 mg/kg/injection, schedule: Q01DX001 (ip), vehicle: saline): 264 % of control | T/C (dose: 30.0 mg/kg/injection, schedule: Q01DX001 (ip), vehicle: saline): 157 % of control and 190 % of control | T/C (dose: 38.0 mg/kg/injection, schedule: Q01DX001 (ip), vehicle: saline): 231 % of control and 244 % of control | T/C (dose: 42.0 mg/kg/injection, schedule: Q01DX001 (ip), vehicle: saline): 250 % of control | T/C (dose: 44.0 mg/kg/injection, schedule: Q01DX001 (ip), vehicle: saline): 234 % of control | T/C (dose: 50.0 mg/kg/injection, schedule: Q01DX001 (ip), vehicle: saline): 333 % of control | T/C (dose: 64.0 mg/kg/injection, schedule: Q01DX001 (ip), vehicle: saline): 278 % of control | T/C (dose: 67.0 mg/kg/injection, schedule: Q01DX001 (ip), vehicle: saline): 209 % of control | T/C (dose: 75.0 mg/kg/injection, schedule: Q01DX001 (ip), vehicle: saline): 431 % of control and 485 % of control | T/C (dose: 100.0 mg/kg/injection, schedule: Q01DX001 (ip), vehicle: saline): 257 % of control and 284 % of control | T/C (dose: 150.0 mg/kg/injection, schedule: Q01DX001 (ip), vehicle: saline): 273 % of control and 342 % of control and 363 % of control | T/C (dose: 220.0 mg/kg/injection, schedule: Q01DX001 (ip), vehicle: saline): 101 % of control

CN(N=O)C(=O)Nc1ccccc1
T/C (dose: 150.0 mg/kg/injection, schedule: Q01DX001 (ip), vehicle: carboxymethylcellulose (CMC)): 103 % of control | T/C [1]: 98 % of control

O=NN(CCCl)C(=O)Nc1ccc2ccccc2c1
T/C (dose: 137.0 mg/kg/injection, schedule: Q01DX001 (ip), vehicle: carboxymethylcellulose (CMC)): 115 % of control | T/C (dose: 200.0 mg/kg/injection, schedule: Q01DX001 (ip), vehicle: carboxymethylcellulose (CMC)): 103 % of control | T/C [1]: 108 % of control

O=NN(CCCl)C(=O)NC1CCSc2ccccc21 (configuration not stated)
T/C (dose: 26.0 mg/kg/injection, schedule: Q01DX001 (ip), vehicle: other): 164 % of control | T/C (dose: 27.0 mg/kg/injection, schedule: Q01DX001 (ip), vehicle: other): 206 % of control | T/C (dose: 40.0 mg/kg/injection, schedule: Q01DX001 (ip), vehicle: other): 201 % of control and 261 % of control | T/C (dose: 60.0 mg/kg/injection, schedule: Q01DX001 (ip), vehicle: other): 263 % of control and 288 % of control | T/C (dose: 90.0 mg/kg/injection, schedule: Q01DX001 (ip), vehicle: other): 161 % of control and 222 % of control | T/C (dose: 135.0 mg/kg/injection, schedule: Q01DX001 (ip), vehicle: other): 230 % of control

NCCc1ccc(O)c(O)c1
T/C (dose: 100.0 mg/kg/injection, schedule: Q04DX003 (ip), vehicle: saline): 102 % of control | T/C (dose: 200.0 mg/kg/injection, schedule: Q04DX003 (ip), vehicle: saline): 95 % of control | T/C (dose: 400.0 mg/kg/injection, schedule: Q04DX003 (ip), vehicle: saline): 98 % of control | T/C (dose: 800.0 mg/kg/injection, schedule: Q04DX003 (ip), vehicle: saline): 97 % of control

Cc1c(C)c(NC(=O)N(CCCl)N=O)c(C)c(C)c1NC(=O)N(CCCl)N=O
T/C (dose: 15.5 mg/kg/injection, schedule: Q01DX001 (ip), vehicle: other): 102 % of control | T/C [2]: 98 % of control | T/C [3]: 101 % of control | T/C (dose: 250.0 mg/kg/injection, schedule: Q01DX001 (ip), vehicle: other): 171 % of control and 175 % of control | T/C (dose: 375.0 mg/kg/injection, schedule: Q01DX001 (ip), vehicle: other): 182 % of control and 183 % of control | T/C (dose: 500.0 mg/kg/injection, schedule: Q01DX001 (ip), vehicle: other): 172 % of control and 178 % of control | T/C (dose: 501.0 mg/kg/injection, schedule: Q01DX001 (ip), vehicle: other): 93 % of control

O=NN(CCCl)C(=O)CCCCC(=O)N(CCCl)N=O
T/C (dose: 44.0 mg/kg/injection, schedule: Q01DX001 (ip), vehicle: carboxymethylcellulose (CMC)): 95 % of control | T/C (dose: 67.0 mg/kg/injection, schedule: Q01DX001 (ip), vehicle: carboxymethylcellulose (CMC)): 96 % of control | T/C (dose: 100.0 mg/kg/injection, schedule: Q01DX001 (ip), vehicle: carboxymethylcellulose (CMC)): 94 % of control

Cc1ccc(S(=O)(=O)NC(=O)N(CCCl)N=O)cc1
T/C [2]: 119 % of control | T/C [3]: 116 % of control | T/C (dose: 140.0 mg/kg/injection, schedule: Q01DX001 (ip), vehicle: other): 115 % of control

C[C@@H]1CN1C1=CC(=O)C(N2C[C@H]2C)=CC1=O
T/C (dose: 8.0 mg/kg/injection, schedule: Q01DX009 (ip), vehicle: Klucel (hydroxypropylcellulose) (HPC)): 95 % of control

O=NN(CCCl)C(=O)N[C@H]1CCCC[C@H]1O
T/C (dose: 18.0 mg/kg/injection, schedule: Q01DX001 (ip), vehicle: saline with Tween-80): 220 % of control | T/C (dose: 26.0 mg/kg/injection, schedule: Q01DX001 (ip), vehicle: saline with Tween-80): 408 % of control | T/C (dose: 40.0 mg/kg/injection, schedule: Q01DX001 (ip), vehicle: saline with Tween-80): 352 % of control | T/C (dose: 60.0 mg/kg/injection, schedule: Q01DX001 (ip), vehicle: saline with Tween-80): 193 % of control

C[n+]1c2ccccc2c(Nc2ccc(NS(=O)(=O)CCCCN=C(N)N)cc2)c2ccc(N)cc21
T/C (dose: 1.5 mg/kg/injection, schedule: Q01DX009 (ip), vehicle: water): 103 % of control | T/C [4]: 121 % of control | T/C (dose: 6.0 mg/kg/injection, schedule: Q01DX009 (ip), vehicle: water): 117 % of control | T/C (dose: 12.0 mg/kg/injection, schedule: Q01DX009 (ip), vehicle: water): 101 % of control

COc1cc(NS(C)(=O)=O)ccc1Nc1c2ccccc2nc2ccccc12
T/C (dose: 0.5 mg/kg/injection, schedule: Q01DX009 (ip), vehicle: other): 98 % of control | T/C (dose: 0.75 mg/kg/injection, schedule: Q01DX009 (ip), vehicle: saline): 100 % of control | T/C (dose: 0.75 mg/kg/injection, schedule: Q01DX009 (sc), vehicle: saline): 101 % of control | T/C (dose: 1.0 mg/kg/injection, schedule: Q01DX009 (ip), vehicle: other): 92 % of control | T/C (dose: 1.25 mg/kg/injection, schedule: Q01DX009 (ip), vehicle: saline): 97 % of control | T/C (dose: 1.25 mg/kg/injection, schedule: Q01DX009 (sc), vehicle: saline): 94 % of control | T/C (dose: 1.5 mg/kg/injection, schedule: Q01DX009 (ip), vehicle: saline): 100 % of control | T/C (dose: 1.5 mg/kg/injection, schedule: Q01DX009 (sc), vehicle: saline): 93 % of control | T/C (dose: 1.8 mg/kg/injection, schedule: Q01DX009 (ip), vehicle: water): 92 % of control | T/C (dose: 2.0 mg/kg/injection, schedule: Q01DX009 (ip), vehicle: other): 105 % of control | T/C (dose: 2.5 mg/kg/injection, schedule: Q01DX009 (ip), vehicle: saline): 108 % of control and 97 % of control | T/C (dose: 2.5 mg/kg/injection, schedule: Q01DX009 (sc), vehicle: saline): 98 % of control and 95 % of control | T/C (dose: 3.0 mg/kg/injection, schedule: Q01DX009 (ip), vehicle: saline): 102 % of control | T/C [4]: 88 % of control | T/C (dose: 3.0 mg/kg/injection, schedule: Q01DX009 (sc), vehicle: saline): 92 % of control | T/C (dose: 5.0 mg/kg/injection, schedule: Q01DX009 (ip), vehicle: saline): 121 % of control and 108 % of control | T/C (dose: 5.0 mg/kg/injection, schedule: Q01DX009 (sc), vehicle: saline): 101 % of control and 93 % of control | T/C (dose: 6.0 mg/kg/injection, schedule: Q01DX009 (ip), vehicle: saline): 104 % of control | T/C (dose: 6.0 mg/kg/injection, schedule: Q01DX009 (sc), vehicle: saline): 96 % of control | T/C (dose: 10.0 mg/kg/injection, schedule: Q01DX009 (ip), vehicle: saline): 111 % of control | T/C (dose: 10.0 mg/kg/injection, schedule: Q01DX009 (sc), vehicle: saline): 100 % of control and 98 % of control | T/C (dose: 20.0 mg/kg/injection, schedule: Q01DX009 (sc), vehicle: saline): 109 % of control

O=NN(CCCl)C(=O)NC1C2CC3CC(C2)CC1C3 (configuration not stated)
T/C (dose: 22.0 mg/kg/injection, schedule: Q01DX001 (ip), vehicle: other): 109 % of control and 119 % of control | T/C (dose: 45.0 mg/kg/injection, schedule: Q01DX001 (ip), vehicle: other): 175 % of control and 231 % of control | T/C (dose: 91.0 mg/kg/injection, schedule: Q01DX001 (ip), vehicle: other): 340 % of control and 376 % of control | T/C (dose: 144.0 mg/kg/injection, schedule: Q01DX001 (ip), vehicle: other): 153 % of control | T/C (dose: 181.0 mg/kg/injection, schedule: Q01DX001 (ip), vehicle: other): 250 % of control and 335 % of control | T/C (dose: 215.0 mg/kg/injection, schedule: Q01DX001 (ip), vehicle: other): 238 % of control | T/C (dose: 322.0 mg/kg/injection, schedule: Q01DX001 (ip), vehicle: other): 217 % of control | T/C (dose: 362.0 mg/kg/injection, schedule: Q01DX001 (ip), vehicle: other): 103 % of control
